Assay results published in US20080009418A1, “Selective Inhibitors” (Alchemia LTD., priority 2004, published 2008).

Tests used:
Human neurokinin (NK1) = target: T1, Human neurokinin (NK1) (Homo sapiens, UniProt P25103); assay: Radioligand binding, human neurokinin NK1 membranes, filtration, [125I]-Substance P; conditions: compound at 10 μM, [125I]-Substance P; for A8: inhibition of radioligand binding: human NK1 membranes
T1 construct: purchased Perkin Elmer Biosignal
Outline: (§1)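 Percent inhibition of radioligand binding measured on recombinant human membranes: NK1 with [125I]-Substance P, KOP with [3H]-Diprenorphine. Incubation 1 h at room temperature, then harvest onto 0.3% PEI-soaked filters, cold Tris-HCl pH 7.4 washes and scintillation counting; non-specific binding from reference ligand wells.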

[1] = target: T2, Human melanin-concentrating hormone (MCH1) (Homo sapiens, UniProt Q99705); assay: Radioligand binding, human melanin-concentrating hormone MCH1 membranes, FlashPlate, [125I]-S36057; conditions: compound at 10 μM; for A6: inhibition of radioligand binding: [125I]-S36057, human MCH1 membranes
T2 construct: purchased Perkin Elmer Biosignal
Outline: (§2)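 Cloned human receptor membranes were coated onto FlashPlate wells and incubated with radioligand and compound (added from a 0.5 mM DMSO daughter plate) for 1 hour at room temperature in the dark. Scintillation counting gave percent inhibition, with DMSO defining total and reference ligand defining non-specific binding.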

Human δ-opioid (DOP) = target: T3, Human δ-opioid (DOP) (Homo sapiens, UniProt P41143); assay: Radioligand binding, human δ-opioid (DOP) membranes, FlashPlate, [3H]-Bremazocine; conditions: compound at 10 μM, [3H]-Bremazocine; for A1: inhibition of radioligand binding: human DOP membranes
T3 construct: purchased Perkin Elmer Biosignal
Outline: as §2

Human melanocortin (MC5) = target: T4, Human melanocortin (MC5) (Homo sapiens, UniProt P33032); assay: Radioligand binding, human melanocortin MC5 membranes, FlashPlate, [125I]-NDP-αMSH; conditions: compound at 10 μM, [125I]-NDP-αMSH; for A5: inhibition of radioligand binding: human MC5 membranes
T4 construct: purchased Perkin Elmer Biosignal
Outline: as §2

[2] = target: T5, Human neuropeptide Y (NPY-Y1) (Homo sapiens, UniProt P25929); assay: Radioligand binding, human neuropeptide Y NPY-Y1 membranes, FlashPlate, [125I]-PYY; conditions: compound at 10 μM, [125I]-PYY; for A9: inhibition of radioligand binding: human NPY-Y1 membranes
T5 construct: purchased Perkin Elmer Biosignal
T5 sequence (P25929 1-384): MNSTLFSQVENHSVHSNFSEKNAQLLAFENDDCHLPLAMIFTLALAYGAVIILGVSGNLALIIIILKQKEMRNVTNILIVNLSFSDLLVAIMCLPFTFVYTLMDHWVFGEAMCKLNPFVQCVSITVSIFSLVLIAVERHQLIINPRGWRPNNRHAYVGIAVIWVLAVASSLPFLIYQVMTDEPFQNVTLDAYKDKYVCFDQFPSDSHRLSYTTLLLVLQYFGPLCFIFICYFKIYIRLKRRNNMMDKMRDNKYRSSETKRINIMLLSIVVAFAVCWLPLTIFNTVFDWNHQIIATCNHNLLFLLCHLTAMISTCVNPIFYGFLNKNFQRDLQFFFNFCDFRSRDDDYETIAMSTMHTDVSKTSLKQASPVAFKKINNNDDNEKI
Outline: as §2

Human opioid (ORL1) = target: T6, Human opioid (ORL1) (Homo sapiens, UniProt P41146); assay: Radioligand binding, human opioid ORL1 membranes, FlashPlate, [125I]-Nociceptin; conditions: compound at 10 μM, [125I]-Nociceptin; for A10: inhibition of radioligand binding: human ORL1 membranes
T6 construct: purchased Perkin Elmer Biosignal
Outline: as §2

Human Melanocortin (MC4) = target: T7, Human Melanocortin (MC4) (Homo sapiens, UniProt P32245); assay: Radioligand binding, human melanocortin MC4 membranes, FlashPlate, [125I]-NDP-αMSH; conditions: compound at 10 μM, [125I]-NDP-αMSH; for A4: inhibition of radioligand binding: human MC4 membranes
T7 construct: purchased Perkin Elmer Biosignal
Outline: as §2

Human μ-opioid (MOP) = target: T8, Human μ-opioid (MOP) (Homo sapiens, UniProt P35372); assay: Radioligand binding, human μ-opioid (MOP) membranes, FlashPlate, [3H]-Naloxone; conditions: compound at 10 μM, [3H]-Naloxone; for A7: inhibition of radioligand binding: human MOP membranes
T8 construct: purchased Perkin Elmer Biosignal
Outline: as §2

Mouse urotensin (mUR2) = target: T9, Mouse urotensin (mUR2) (Mus musculus, UniProt Q8VIH9); assay: Radioligand binding, mouse urotensin mUR2 membranes, FlashPlate, [125I]-Urotensin II; conditions: compound at 10 μM, [125I]-Urotensin II; for A11: inhibition of radioligand binding: mouse mUR2 membranes
T9 construct: purchased Perkin Elmer Biosignal
T9 sequence (Q8VIH9 1-385): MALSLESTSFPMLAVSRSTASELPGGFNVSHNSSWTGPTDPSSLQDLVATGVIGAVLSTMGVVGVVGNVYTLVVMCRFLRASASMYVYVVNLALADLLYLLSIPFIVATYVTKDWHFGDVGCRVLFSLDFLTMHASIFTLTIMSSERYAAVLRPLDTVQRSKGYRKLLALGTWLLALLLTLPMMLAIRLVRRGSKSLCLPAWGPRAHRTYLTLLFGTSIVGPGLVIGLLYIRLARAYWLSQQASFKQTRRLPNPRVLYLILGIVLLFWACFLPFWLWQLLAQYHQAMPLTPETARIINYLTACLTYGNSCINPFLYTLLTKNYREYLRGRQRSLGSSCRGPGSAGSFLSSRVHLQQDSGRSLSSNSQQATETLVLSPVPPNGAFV
Outline: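 Cloned mouse urotensin (mUR2) receptor membranes from Perkin Elmer Biosignal were immobilized in FlashPlate microplates using a proprietary coating. Each well got 19.5 μl buffer, then 0.5 μl of DMSO, reference ligand, or compound. Adding 5 μl of [125I]-Urotensin II, diluted to 5× final concentration in binding buffer, started binding. Plates were sealed with TopSeal-A and incubated 1 hour at room temperature in the dark. Wells were counted for 30 seconds each on a TopCount after a 60-second delay, and percentage inhibition was calculated.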

Human Melanocortin (MC3) = target: T10, Human Melanocortin (MC3) (Homo sapiens, UniProt P41968); assay: Radioligand binding, human melanocortin MC3 membranes, FlashPlate, [125I]-NDP-αMSH; conditions: compound at 10 μM, [125I]-NDP-αMSH; for A3: inhibition of radioligand binding: human MC3 membranes
T10 construct: purchased Perkin Elmer Biosignal
Outline: as §2

Human κ-Opioid (KOP) = target: T11, Human κ-Opioid (KOP) (Homo sapiens, UniProt P41145); assay: Radioligand binding, human κ-opioid (KOP) membranes, filtration, [3H]-Diprenorphine; conditions: compound at 10 μM, [3H]-Diprenorphine; for A2: inhibition of radioligand binding: human KOP membranes
T11 construct: purchased Perkin Elmer Biosignal
Outline: as §1

T10 sequence (P41968 whole entry): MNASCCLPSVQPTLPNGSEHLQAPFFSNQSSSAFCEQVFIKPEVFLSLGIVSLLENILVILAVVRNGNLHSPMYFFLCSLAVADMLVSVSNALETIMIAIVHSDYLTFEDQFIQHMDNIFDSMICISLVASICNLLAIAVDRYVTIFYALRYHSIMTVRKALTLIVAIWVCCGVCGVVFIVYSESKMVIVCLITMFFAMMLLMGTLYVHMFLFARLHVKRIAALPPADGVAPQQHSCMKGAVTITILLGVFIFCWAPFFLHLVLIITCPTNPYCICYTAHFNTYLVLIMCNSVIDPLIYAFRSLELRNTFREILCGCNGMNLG
T6 sequence (P41146 whole entry): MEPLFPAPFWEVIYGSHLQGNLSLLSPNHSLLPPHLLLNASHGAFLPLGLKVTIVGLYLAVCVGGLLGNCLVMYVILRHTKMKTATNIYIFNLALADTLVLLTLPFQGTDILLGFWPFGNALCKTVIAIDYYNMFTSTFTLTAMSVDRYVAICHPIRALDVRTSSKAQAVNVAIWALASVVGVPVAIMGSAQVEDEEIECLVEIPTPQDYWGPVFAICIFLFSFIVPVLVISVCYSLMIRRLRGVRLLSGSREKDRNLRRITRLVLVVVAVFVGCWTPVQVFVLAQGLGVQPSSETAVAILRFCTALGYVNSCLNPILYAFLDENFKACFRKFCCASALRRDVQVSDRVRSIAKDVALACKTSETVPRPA
T2 sequence (Q99705 whole entry): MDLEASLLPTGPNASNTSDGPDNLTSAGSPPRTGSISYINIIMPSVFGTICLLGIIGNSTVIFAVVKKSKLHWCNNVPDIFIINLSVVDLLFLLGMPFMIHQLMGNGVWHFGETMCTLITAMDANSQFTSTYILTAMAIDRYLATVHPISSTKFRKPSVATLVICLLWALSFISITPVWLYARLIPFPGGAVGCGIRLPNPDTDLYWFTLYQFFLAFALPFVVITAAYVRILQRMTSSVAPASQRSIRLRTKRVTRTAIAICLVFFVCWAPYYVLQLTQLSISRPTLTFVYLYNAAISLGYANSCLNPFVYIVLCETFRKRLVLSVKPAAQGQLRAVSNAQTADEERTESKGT
T3 sequence (P41143 whole entry): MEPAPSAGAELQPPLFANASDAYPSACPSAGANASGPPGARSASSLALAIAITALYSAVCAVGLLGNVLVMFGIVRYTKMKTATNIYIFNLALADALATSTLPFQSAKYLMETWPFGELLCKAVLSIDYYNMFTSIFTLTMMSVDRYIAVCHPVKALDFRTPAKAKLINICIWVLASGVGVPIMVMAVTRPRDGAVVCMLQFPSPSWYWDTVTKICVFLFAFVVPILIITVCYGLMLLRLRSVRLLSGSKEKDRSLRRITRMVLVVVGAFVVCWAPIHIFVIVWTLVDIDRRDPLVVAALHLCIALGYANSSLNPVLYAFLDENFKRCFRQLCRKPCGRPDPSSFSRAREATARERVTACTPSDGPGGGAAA
T11 sequence (P41145 whole entry): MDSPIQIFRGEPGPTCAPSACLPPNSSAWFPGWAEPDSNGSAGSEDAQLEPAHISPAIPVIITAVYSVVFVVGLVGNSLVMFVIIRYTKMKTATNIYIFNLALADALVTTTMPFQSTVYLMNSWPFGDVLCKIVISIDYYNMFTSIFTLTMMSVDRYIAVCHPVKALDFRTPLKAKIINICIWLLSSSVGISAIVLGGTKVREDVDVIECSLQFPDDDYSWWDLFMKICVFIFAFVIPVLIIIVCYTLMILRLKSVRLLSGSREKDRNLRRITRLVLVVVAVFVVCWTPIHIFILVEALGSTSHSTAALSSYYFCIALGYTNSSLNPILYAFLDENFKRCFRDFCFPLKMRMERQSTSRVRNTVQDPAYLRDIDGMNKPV
T8 sequence (P35372 whole entry): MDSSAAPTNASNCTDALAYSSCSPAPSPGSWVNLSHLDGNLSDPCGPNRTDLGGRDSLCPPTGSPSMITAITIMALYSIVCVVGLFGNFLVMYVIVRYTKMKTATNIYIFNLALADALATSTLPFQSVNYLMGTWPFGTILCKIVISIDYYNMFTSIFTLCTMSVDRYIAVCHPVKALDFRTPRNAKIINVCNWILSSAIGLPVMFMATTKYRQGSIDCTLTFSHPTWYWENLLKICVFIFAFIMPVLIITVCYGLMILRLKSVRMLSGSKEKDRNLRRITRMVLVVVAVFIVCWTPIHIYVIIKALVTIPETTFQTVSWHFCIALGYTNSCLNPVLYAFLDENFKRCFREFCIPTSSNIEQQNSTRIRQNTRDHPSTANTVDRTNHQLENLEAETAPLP
T1 sequence (P25103 whole entry): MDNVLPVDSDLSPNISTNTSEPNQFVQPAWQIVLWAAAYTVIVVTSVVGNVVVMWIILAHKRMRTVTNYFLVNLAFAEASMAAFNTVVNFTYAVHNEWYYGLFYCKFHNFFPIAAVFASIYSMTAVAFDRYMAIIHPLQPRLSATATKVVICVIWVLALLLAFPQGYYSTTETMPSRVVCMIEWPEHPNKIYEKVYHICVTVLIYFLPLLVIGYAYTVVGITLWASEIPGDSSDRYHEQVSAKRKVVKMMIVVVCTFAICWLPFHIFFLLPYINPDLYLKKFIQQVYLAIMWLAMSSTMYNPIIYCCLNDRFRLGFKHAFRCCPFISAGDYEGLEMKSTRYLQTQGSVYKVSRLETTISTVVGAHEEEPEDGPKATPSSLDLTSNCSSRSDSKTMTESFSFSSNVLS
T4 sequence (P33032 whole entry): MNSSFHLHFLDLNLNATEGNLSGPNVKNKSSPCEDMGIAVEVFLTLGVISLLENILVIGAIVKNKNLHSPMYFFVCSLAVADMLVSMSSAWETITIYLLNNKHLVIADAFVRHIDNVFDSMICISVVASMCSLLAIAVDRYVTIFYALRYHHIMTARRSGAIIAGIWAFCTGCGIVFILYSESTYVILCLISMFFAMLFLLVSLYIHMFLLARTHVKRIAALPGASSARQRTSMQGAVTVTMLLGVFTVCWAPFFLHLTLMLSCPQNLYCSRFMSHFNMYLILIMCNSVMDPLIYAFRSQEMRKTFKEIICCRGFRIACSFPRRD
T7 sequence (P32245 whole entry): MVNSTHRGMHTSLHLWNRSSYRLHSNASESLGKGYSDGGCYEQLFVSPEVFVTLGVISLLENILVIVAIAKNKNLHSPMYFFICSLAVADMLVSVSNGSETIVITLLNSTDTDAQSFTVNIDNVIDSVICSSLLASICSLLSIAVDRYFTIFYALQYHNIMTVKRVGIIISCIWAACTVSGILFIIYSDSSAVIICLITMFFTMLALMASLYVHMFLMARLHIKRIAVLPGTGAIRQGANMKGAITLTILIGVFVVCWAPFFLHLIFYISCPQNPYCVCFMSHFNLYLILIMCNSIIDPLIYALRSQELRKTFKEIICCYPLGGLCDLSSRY

## N=C(N)NCCC(=O)NC1C(OCc2ccc(Cl)cc2)OC(COCc2ccccc2)C(O)C1OCc1ccc2ccccc2c1 (stereo not drawn) [compound 430]
Human neurokinin (NK1)
  A8: inhibition of radioligand binding: + (“+” indicates greater than 50% inhibition at 10 μM)
[1]
  A6: inhibition of radioligand binding: + (“+” indicates greater than 50% inhibition at 10 μM)
Human δ-opioid (DOP)
  A1: inhibition of radioligand binding: − (“−” indicates less than 50% inhibition at 10 μM)
Human melanocortin (MC5)
  A5: inhibition of radioligand binding: + (“+” indicates greater than 50% inhibition at 10 μM)
[2]
  A9: inhibition of radioligand binding: − (“−” indicates less than 50% inhibition at 10 μM)
Human opioid (ORL1)
  A10: inhibition of radioligand binding: + (“+” indicates greater than 50% inhibition at 10 μM)
Human Melanocortin (MC4)
  A4: inhibition of radioligand binding: + (“+” indicates greater than 50% inhibition at 10 μM)
Human μ-opioid (MOP)
  A7: inhibition of radioligand binding: − (“−” indicates less than 50% inhibition at 10 μM)
Mouse urotensin (mUR2)
  A11: inhibition of radioligand binding: − (“−” indicates less than 50% inhibition at 10 μM)
Human Melanocortin (MC3)
  A3: inhibition of radioligand binding: + (“+” indicates greater than 50% inhibition at 10 μM)
Human κ-Opioid (KOP)
  A2: inhibition of radioligand binding: − (“−” indicates less than 50% inhibition at 10 μM)

## N=C(N)NCCC(=O)NC1C(OCc2ccc(Cl)cc2)OC(COCc2ccccc2)C(O)C1OCc1ccc(-c2ccccc2)cc1 (stereo not drawn) [compound 433]
Human neurokinin (NK1)
  A8: inhibition of radioligand binding: + (“+” indicates greater than 50% inhibition at 10 μM)
[1]
  A6: inhibition of radioligand binding: + (“+” indicates greater than 50% inhibition at 10 μM)
Human δ-opioid (DOP)
  A1: inhibition of radioligand binding: − (“−” indicates less than 50% inhibition at 10 μM)
Human melanocortin (MC5)
  A5: inhibition of radioligand binding: + (“+” indicates greater than 50% inhibition at 10 μM)
[2]
  A9: inhibition of radioligand binding: − (“−” indicates less than 50% inhibition at 10 μM)
Human opioid (ORL1)
  A10: inhibition of radioligand binding: − (“−” indicates less than 50% inhibition at 10 μM)
Human Melanocortin (MC4)
  A4: inhibition of radioligand binding: + (“+” indicates greater than 50% inhibition at 10 μM)
Human μ-opioid (MOP)
  A7: inhibition of radioligand binding: − (“−” indicates less than 50% inhibition at 10 μM)
Mouse urotensin (mUR2)
  A11: inhibition of radioligand binding: − (“−” indicates less than 50% inhibition at 10 μM)
Human Melanocortin (MC3)
  A3: inhibition of radioligand binding: − (“−” indicates less than 50% inhibition at 10 μM)
Human κ-Opioid (KOP)
  A2: inhibition of radioligand binding: − (“−” indicates less than 50% inhibition at 10 μM)

## NCCCC(=O)NC1C(OCc2ccc(Cl)cc2)OC(COCc2ccc3ccccc3c2)C(O)C1OCc1ccccc1 (single isomer, unassigned) [compound 501]
Human neurokinin (NK1)
  A8: inhibition of radioligand binding, human neurokinin (NK1): + (“+” indicates greater than 50% inhibition at 10 μM)
[1]; [125I]-S36057, 10 µM
  A6: inhibition of radioligand binding, human melanin-concentrating hormone (MCH1): − (“−” indicates less than 50% inhibition at 10 μM)
Human δ-opioid (DOP)
  A1: inhibition of radioligand binding, human δ-opioid (DOP): − (“−” indicates less than 50% inhibition at 10 μM)
Human melanocortin (MC5)
  A5: inhibition of radioligand binding, human melanocortin (MC5): + (“+” indicates greater than 50% inhibition at 10 μM)
[2]
  A9: inhibition of radioligand binding, human neuropeptide Y (NPY-Y1): − (“−” indicates less than 50% inhibition at 10 μM)
Human opioid (ORL1)
  A10: inhibition of radioligand binding, human opioid (ORL1): + (“+” indicates greater than 50% inhibition at 10 μM)
Human Melanocortin (MC4)
  A4: inhibition of radioligand binding, human melanocortin (MC4): + (“+” indicates greater than 50% inhibition at 10 μM)
Human μ-opioid (MOP); 10 µM
  A7: inhibition of radioligand binding, human μ-opioid (MOP): − (“−” indicates less than 50% inhibition at 10 μM)
Mouse urotensin (mUR2)
  A11: inhibition of radioligand binding, mouse urotensin (mUR2): − (“−” indicates less than 50% inhibition at 10 μM)
Human Melanocortin (MC3); 10 µM
  A3: inhibition of radioligand binding, human melanocortin (MC3): + (“+” indicates greater than 50% inhibition at 10 μM)
Human κ-Opioid (KOP)
  A2: inhibition of radioligand binding, human κ-opioid (KOP): − (“−” indicates less than 50% inhibition at 10 μM)
